According to article PMC11530593, “Structural mechanism of human HCN1 hyperpolarization-activated channel inhibition by ivabradine” (The Journal of Biological Chemistry, 2024):
Residue numbers refer to the chain shown, from its start.

What was measured:
[1] = target: T1, HCN1 mutant D140A (Homo sapiens, UniProt O60741, D140A); experiment: Whole-cell patch-clamp, Ih inhibition, HCN1 mutant; assay type: cell-based
T1 construct: Full-length WT or mutant human HCN1 were cloned into the pcDNA3.1 vector; expressed in transfected cells; host or cells: HeLa cells, pcDNA3.1 vector, transient lipofection
T1 sequence (O60741 1-890 D140A): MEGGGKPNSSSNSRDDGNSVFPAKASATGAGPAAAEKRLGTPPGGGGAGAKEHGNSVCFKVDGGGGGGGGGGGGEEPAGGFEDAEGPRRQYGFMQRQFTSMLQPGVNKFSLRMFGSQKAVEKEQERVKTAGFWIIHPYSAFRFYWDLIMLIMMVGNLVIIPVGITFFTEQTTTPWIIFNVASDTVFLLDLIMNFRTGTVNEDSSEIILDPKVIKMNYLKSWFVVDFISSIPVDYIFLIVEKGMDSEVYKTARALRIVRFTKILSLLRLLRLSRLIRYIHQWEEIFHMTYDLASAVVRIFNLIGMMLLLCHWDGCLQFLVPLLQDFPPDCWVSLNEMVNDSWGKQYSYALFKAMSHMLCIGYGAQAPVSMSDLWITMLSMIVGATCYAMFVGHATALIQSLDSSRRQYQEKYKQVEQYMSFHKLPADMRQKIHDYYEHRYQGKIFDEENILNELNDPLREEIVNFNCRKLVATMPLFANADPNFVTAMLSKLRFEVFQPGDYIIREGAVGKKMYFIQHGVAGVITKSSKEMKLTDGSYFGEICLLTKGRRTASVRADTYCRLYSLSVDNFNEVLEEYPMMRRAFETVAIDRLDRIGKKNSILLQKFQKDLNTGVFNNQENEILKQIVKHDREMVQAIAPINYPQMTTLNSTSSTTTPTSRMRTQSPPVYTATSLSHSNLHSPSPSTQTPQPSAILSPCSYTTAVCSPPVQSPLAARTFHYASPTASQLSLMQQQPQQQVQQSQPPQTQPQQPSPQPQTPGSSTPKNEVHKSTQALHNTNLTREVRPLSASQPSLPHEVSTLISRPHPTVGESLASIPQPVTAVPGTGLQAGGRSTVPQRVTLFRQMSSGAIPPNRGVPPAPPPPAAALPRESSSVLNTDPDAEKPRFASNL
Experimental: (§1) To elucidate the contribution of these residues to the inhibitory effect of ivabradine, we introduced mutations in ivabradine-interacting residues, converting them into alanines (Fig. 2F).
(§2) Full-length WT or mutant human HCN1 were cloned into the pcDNA3.1 vector for electrophysiological experiments. HeLa cells (from Thermo Fisher Scientific) cultured in Dulbecco's modified Eagle's medium (from Solarbio Life Science) + 10% fetal bovine serum (from ExCell Bio) at 37 °C were transiently transfected using lipofection, and whole-cell patch-clamp recordings were obtained using the Axon 200B amplifier (Molecular Devices) and clampex software (https://www.moleculardevices.com/products/axon-patch-clamp-system/acquisition-and-analysis-software/pclamp-software-suite), 36 to 48 h posttransfection. The extracellular solution contained 110 mM NaCl, 0.5 mM MgCl2, 1.8 mM CaCl2, 5 mM Hepes, 30 mM KCl, and pH was adjusted to 7.4 with NaOH, while the pipette solution contained 130 mM KCl, 10 mM NaCl, 0.5 mM MgCl2, 1 mM EGTA, 5 mM Hepes, and pH was adjusted to 7.4 with KOH. The recordings were performed at room temperature, voltage-clamp mode, and filtered at 1 kHz. The sampling frequency was 10 kHz, and the series resistance was limited to 5 MΩ. To elicit channel currents, step pulses of 3 s duration ranging from −180 mV to −30 mV were applied, followed by a step to −180 mV lasting 1.25 s. The tail currents evoked by the second step were used to determine the voltage-dependent activation curves and calculate the midpoint of activation potential (V1/2). The half maximal inhibitory concentration (IC50) of drugs was determined by recording currents at a pulse of −140 mV and analyzing current amplitudes at varying drug concentrations. The IC50 value was calculated using the Hill equation.

[2] = target: T2, HCN1 mutant Y289A (Homo sapiens, UniProt O60741, Y289A); experiment: Whole-cell patch-clamp, Ih inhibition, HCN1 mutant; assay type: cell-based; conditions: electrophysiological recordings, read-out: IC50 (Fig. 2F)
T2 construct: Full-length WT or mutant human HCN1 were cloned into the pcDNA3.1 vector; expressed in transfected cells; host or cells: HeLa cells, pcDNA3.1 vector, transient lipofection
T2 sequence (O60741 1-890 Y289A): T1 sequence (O60741 1-890 D140A) with A140D, Y289A
Experimental: as §1, §2

[3] = tested on: absence seizures; design: method as in PMID 34018186; conditions: coadministration with P-glycoprotein inhibitor elacridar; cited from earlier work

COc1cc2c(cc1OC)CC(=O)N(CCCN(C)C[C@H]1Cc3cc(OC)c(OC)cc31)CC2 [ivabradine]
IC50 ([1]; D140A mutant, electrophysiological recordings, read-out: IC50 (Fig. 2F)): 27.6 µM | change in potency by mutation ([1]; D140A versus WT): dramatic decrease | IC50 [2]: 11.8 µM | effect on absence seizures [3]: significantly and persistently reducing absence seizures
